Measurements reported in PubChem BioAssay AID206 (DTP/NCI, 2004).
Inconclusive results are not listed. Residues, ends and D or L forms follow the SMILES beside them. *: point of attachment. Trt = c1ccc(C(c2ccccc2)(c2ccccc2)*)cc1; Cbz = O=C(OCc1ccccc1)*

Test system: nude mice, HT29 intrarenal xenograft, tumor weight T/C
Experiment: NCI In Vivo Anticancer Drug Screen. Data for tumor model HT29;CX-1 Human Adenocarcinoma (MER+) (intrarenal inoculation) in NU/NU Swiss (nude) mice
Details: endpoint: mean tumor weight change, higher = larger tumour
Summary of the method: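 Readout: treated/vehicle-control ratio of the measured endpoint (tumor size or survival) in transplanted-tumor mice.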

[1] = dose: 50.0 mg/kg/injection, schedule: Q04DX004 (sc), vehicle: saline with Tween-80
[2] = dose: 100.0 mg/kg/injection, schedule: Q04DX004 (sc), vehicle: saline with Tween-80
[3] = dose: 200.0 mg/kg/injection, schedule: Q04DX004 (sc), vehicle: saline with Tween-80
[4] = dose: 400.0 mg/kg/injection, schedule: Q04DX004 (sc), vehicle: saline with Tween-80
[5] = dose: 150.0 mg/kg/injection, schedule: Q04DX004 (sc), vehicle: saline
[6] = dose: 300.0 mg/kg/injection, schedule: Q04DX004 (sc), vehicle: saline
[7] = dose: 20.0 mg/kg/injection, schedule: Q04DX004 (sc), vehicle: water

Which T/C [1] does the source give for `Nc1nnc[se]1` here?
Its T/C is 58 % of control.

What about the T/C [2] of the same molecule?
The T/C was 33 % of control.

And the T/C [3]?
Its T/C is 34 % of control.

What about the T/C [4] of the same molecule?
The T/C was 23 % of control.

Which T/C (dose: 50.0 micrograms/kg/injection, schedule: Q01DX010 (sc), vehicle: Klucel (hydroxypropylcellulose) (HPC)) does the source give for `COc1cc2cc(c1Cl)N(C)C(=O)C[C@H](OC(=O)[C@H](C)N(C)C(C)=O)[C@]1(C)O[C@H]1[C@H](C)[C@@H]1C[C@@](O)(NC(=O)O1)[C@H](OC)C=C/C=C(\C)C2` here?
The T/C was 40 % of control.

What about the T/C (dose: 100.0 micrograms/kg/injection, schedule: Q01DX010 (sc), vehicle: Klucel (hydroxypropylcellulose) (HPC)) of the same molecule?
Its T/C is 93 % of control.

What about the T/C (dose: 200.0 micrograms/kg/injection, schedule: Q01DX010 (sc), vehicle: Klucel (hydroxypropylcellulose) (HPC)) of the same molecule?
The T/C was 24 % of control.

`COC(=O)C(CSC(c1ccccc1)(c1ccccc1)c1ccccc1)NC(=O)C(CC(N)=O)NC(=O)OCc1ccccc1` (stereo not drawn) (Cbz-Asn-Cys(Trt)-OMe; configuration not given here) was tested. Which T/C (dose: 150.0 mg/kg/injection, schedule: Q04DX004 (sc), vehicle: distilled water + Tween-80) did it give?
The T/C was 63 % of control.

What about the T/C (dose: 300.0 mg/kg/injection, schedule: Q04DX004 (sc), vehicle: distilled water + Tween-80) of the same molecule?
The T/C was 69 % of control.

And the T/C (dose: 600.0 mg/kg/injection, schedule: Q04DX004 (sc), vehicle: distilled water + Tween-80)?
The T/C was 81 % of control.

And the T/C (dose: 1200.0 mg/kg/injection, schedule: Q04DX004 (sc), vehicle: distilled water + Tween-80)?
Its T/C is 83 % of control.

How did the T/C (dose: 300.0 mg/kg/injection, schedule: Q04DX004 (sc), vehicle: saline with Tween-80) turn out when `CC(=S)NC(O)C(=O)c1ccccc1` (stereo unspecified) was run?
The T/C was 116 % of control.

How did the T/C (dose: 50.0 mg/kg/injection, schedule: Q04DX004 (sc), vehicle: Klucel (hydroxypropylcellulose) (HPC)) turn out when `COc1ccc2c(c1)CCC(c1ccccc1)=C2c1ccc(OCCN2CCCC2)cc1` was run?
Its T/C is 87 % of control.

And the T/C (dose: 200.0 mg/kg/injection, schedule: Q04DX004 (sc), vehicle: Klucel (hydroxypropylcellulose) (HPC))?
Its T/C is 108 % of control.

What about the T/C (dose: 400.0 mg/kg/injection, schedule: Q04DX004 (sc), vehicle: Klucel (hydroxypropylcellulose) (HPC)) of the same molecule?
The T/C was 52 % of control.

Which results are given for `CC1CN=C(c2ccc(NC(=O)c3ccc(C(=O)Nc4ccc(C5=NCC(C)N5)cc4)cc3)cc2)N1` (stereo unspecified)?
T/C (dose: 25.0 mg/kg/injection, schedule: Q01DX010 (sc), vehicle: Klucel (hydroxypropylcellulose) (HPC)): 65 % of control; T/C (dose: 50.0 mg/kg/injection, schedule: Q01DX010 (sc), vehicle: Klucel (hydroxypropylcellulose) (HPC)): 34 % of control; T/C (dose: 100.0 mg/kg/injection, schedule: Q01DX010 (sc), vehicle: Klucel (hydroxypropylcellulose) (HPC)): 37 % of control; T/C (dose: 200.0 mg/kg/injection, schedule: Q01DX010 (sc), vehicle: Klucel (hydroxypropylcellulose) (HPC)): 44 % of control

With `CN(C)CCOc1ccc2c(c1)C/C(=C/c1ncc([N+](=O)[O-])n1C)C2=O` as the molecule, how does the T/C (dose: 50.0 mg/kg/injection, schedule: Q01DX010 (sc), vehicle: saline with Tween-80) read?
Its T/C is 83 % of control.

What about the T/C (dose: 100.0 mg/kg/injection, schedule: Q01DX010 (sc), vehicle: saline with Tween-80) of the same molecule?
Its T/C is 78 % of control.

And the T/C (dose: 200.0 mg/kg/injection, schedule: Q01DX010 (sc), vehicle: saline with Tween-80)?
Its T/C is 18 % of control.

What about the T/C (dose: 400.0 mg/kg/injection, schedule: Q01DX010 (sc), vehicle: saline with Tween-80) of the same molecule?
The T/C was 93 % of control.

How did the T/C (dose: 75.0 mg/kg/injection, schedule: Q04DX004 (sc), vehicle: saline) turn out when `COC1C(OC(=O)/C=C/C=C/C=C/C=C/C(=O)O)CCC2(CO2)C1C1(C)OC1CC=C(C)C` (stereo unspecified) was run?
The T/C was 104 % of control.

What about the T/C [5] of the same molecule?
Its T/C is 96 % of control.

What about the T/C [6] of the same molecule?
Its T/C is 119 % of control.

What does the source list for `Cc1[nH]c(=O)[nH]c(=O)c1N(CCF)CCCl`?
T/C (dose: 10.0 mg/kg/injection, schedule: Q01DX010 (sc), vehicle: Klucel (hydroxypropylcellulose) (HPC)): 117 % of control; T/C (dose: 20.0 mg/kg/injection, schedule: Q01DX010 (sc), vehicle: Klucel (hydroxypropylcellulose) (HPC)): 95 % of control; T/C (dose: 40.0 mg/kg/injection, schedule: Q01DX010 (sc), vehicle: Klucel (hydroxypropylcellulose) (HPC)): 48 % of control

What does the source list for `CNc1nc(N(C)C)nc(N(C)C)n1`?
T/C (dose: 12.5 mg/kg/injection, schedule: Q04DX004 (sc), vehicle: water): 54 % of control; T/C (dose: 15.0 mg/kg/injection, schedule: Q01DX010 (sc), vehicle: water): 89 % of control; T/C (dose: 25.0 mg/kg/injection, schedule: Q04DX004 (sc), vehicle: water): 75 % of control; T/C (dose: 50.0 mg/kg/injection, schedule: Q04DX004 (sc), vehicle: water): 51 % of control; T/C (dose: 100.0 mg/kg/injection, schedule: Q04DX004 (sc), vehicle: water): 51 % of control

`COc1cc([C@@H]2c3cc4c(cc3[C@@H](OC3OC5COC(C)OC5C(O)C3O)[C@H]3COC(=O)[C@H]23)OCO4)cc(OC)c1O` (stereo partly specified) was tested. Which T/C (dose: 4.0 mg/kg/injection, schedule: Q01DX010 (sc), vehicle: saline) did it give?
The T/C was 71 % of control.

What about the T/C (dose: 32.0 mg/kg/injection, schedule: Q01DX010 (sc), vehicle: saline) of the same molecule?
The T/C was 62 % of control.

For `CSc1ccc2c(c1)C(N1CCN(C)CC1)Cc1ccccc1S2` (stereo unspecified), which T/C (dose: 12.5 mg/kg/injection, schedule: Q04DX004 (sc), vehicle: saline with Tween-80) is on record?
The T/C was 80 % of control.

What about the T/C (dose: 25.0 mg/kg/injection, schedule: Q04DX004 (sc), vehicle: saline with Tween-80) of the same molecule?
Its T/C is 98 % of control.

And the T/C [1]?
Its T/C is 124 % of control.

What does the source list for `O=C1N=C(Oc2ccccc2)SC1=O`?
T/C [1]: 40 % of control; T/C [2]: 76 % of control; T/C [3]: 59 % of control; T/C [4]: 78 % of control

What does the source list for `COc1cccc2c1C(=O)c1c(O)c3c(c(O)c1C2=O)C[C@@](O)(/C(C)=N/NC(=O)c1cccc([N+](=O)[O-])c1)C[C@@H]3OC1CC(N)C(O)C(C)O1` (stereo partly specified)?
T/C (dose: 8.0 mg/kg/injection, schedule: Q01DX010 (sc), vehicle: water): 16 % of control; T/C (dose: 10.0 mg/kg/injection, schedule: Q04DX004 (sc), vehicle: water): 48 % of control; T/C (dose: 16.0 mg/kg/injection, schedule: Q01DX010 (sc), vehicle: water): 61 % of control; T/C [7]: 70 % of control; T/C (dose: 40.0 mg/kg/injection, schedule: Q04DX004 (sc), vehicle: water): 47 % of control; T/C (dose: 80.0 mg/kg/injection, schedule: Q04DX004 (sc), vehicle: water): 106 % of control

For `O=c1[nH]cnc2c1ccn2C1OC(CO)C(O)C1O` (stereo unspecified), which T/C (dose: 5.0 mg/kg/injection, schedule: Q04DX004 (sc), vehicle: saline) is on record?
The T/C was 48 % of control.

And the T/C (dose: 10.0 mg/kg/injection, schedule: Q04DX004 (sc), vehicle: saline)?
The T/C was 61 % of control.

And the T/C (dose: 20.0 mg/kg/injection, schedule: Q04DX004 (sc), vehicle: saline)?
Its T/C is 69 % of control.

What about the T/C (dose: 40.0 mg/kg/injection, schedule: Q04DX004 (sc), vehicle: saline) of the same molecule?
Its T/C is 97 % of control.

What does the source list for `Nc1nc(/C=C(/O)c2ccccc2)c2ncn(C3OC(CO)C(O)C3O)c2n1` (stereo unspecified)?
T/C (dose: 50.0 mg/kg/injection, schedule: Q04DX004 (sc), vehicle: distilled water + Tween-80): 52 % of control; T/C (dose: 100.0 mg/kg/injection, schedule: Q04DX004 (sc), vehicle: distilled water + Tween-80): 70 % of control; T/C (dose: 200.0 mg/kg/injection, schedule: Q04DX004 (sc), vehicle: distilled water + Tween-80): 155 % of control; T/C (dose: 400.0 mg/kg/injection, schedule: Q04DX004 (sc), vehicle: distilled water + Tween-80): 80 % of control

`O=CC(=O)c1ccc(O)cc1` was tested. Which T/C [5] did it give?
Its T/C is 73 % of control.

What about the T/C [6] of the same molecule?
Its T/C is 67 % of control.

What about the T/C (dose: 600.0 mg/kg/injection, schedule: Q04DX004 (sc), vehicle: saline) of the same molecule?
The T/C was 56 % of control.

Which results are given for `CC(Cc1ccc(O)c(O)c1)C(C)Cc1ccc(O)c(O)c1` (stereo unspecified)?
T/C (dose: 600.0 mg/kg/injection, schedule: Q04DX004 (sc), vehicle: saline + alcohol): 68 % of control; T/C (dose: 900.0 mg/kg/injection, schedule: Q04DX004 (sc), vehicle: saline + alcohol): 102 % of control; T/C (dose: 1800.0 mg/kg/injection, schedule: Q04DX004 (sc), vehicle: saline + alcohol): 97 % of control

Which results are given for `Cc1c2ccccc2cc2cccc[n+]12`?
T/C (dose: 7.5 mg/kg/injection, schedule: Q04DX004 (sc), vehicle: saline): 116 % of control; T/C (dose: 15.0 mg/kg/injection, schedule: Q04DX004 (sc), vehicle: saline): 63 % of control; T/C (dose: 30.0 mg/kg/injection, schedule: Q04DX004 (sc), vehicle: saline): 93 % of control

What does the source list for `CC(=O)OCC1OC(OC(C)=O)C(NC(=O)N(CCCl)N=O)C(OC(C)=O)C1OC(C)=O` (stereo unspecified)?
T/C (dose: 3.0 mg/kg/injection, schedule: Q04DX004 (sc), vehicle: Klucel (hydroxypropylcellulose) (HPC)): 30 % of control; T/C (dose: 6.0 mg/kg/injection, schedule: Q04DX004 (sc), vehicle: Klucel (hydroxypropylcellulose) (HPC)): 40 % of control; T/C (dose: 12.0 mg/kg/injection, schedule: Q04DX004 (sc), vehicle: Klucel (hydroxypropylcellulose) (HPC)): 60 % of control; T/C (dose: 24.0 mg/kg/injection, schedule: Q04DX004 (sc), vehicle: Klucel (hydroxypropylcellulose) (HPC)): 96 % of control

Which T/C [7] does the source give for `CCOC(OCC)C(=O)OCC(=O)[C@]1(O)Cc2c(O)c3c(c(O)c2[C@@H](OC2CC(N)C(O)C(C)O2)C1)C(=O)c1c(OC)cccc1C3=O` (stereo partly specified) here?
The T/C was 33 % of control.
